Laboratory results taken from patent US12564582B2 (Prilenia Neurotherapeutics Ltd., priority 2016, dated 2026).
Like-named read-outs stand apart in the source and are kept apart here.

Columns and labels:
[1] = tested on: patients with Huntington's disease;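 for Δ to placebo, change from baseline in UHDRS TMS Finger Tapping+Pronate-Supinate Hands: finger tapping item rates tapping with fingers of both hands, normal being 15 taps within 5 s, the combined score adds forearm pronation and supination on each side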;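 for Δ to placebo, change from baseline in UHDRS TMS Finger Taps: finger tapping item rates tapping with fingers of both hands, normal being 15 taps within 5 s, the combined score adds forearm pronation and supination on each side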
Description: Finger Taps and Pronate-Supinate (P/S) hands is a combination of finger tapping (the ability to tap the fingers of both hands where 15 repetitions in 5 seconds is considered normal) with pronation/supination (the ability to rotate the forearm and hand such that the palm is down (pronation) and to rotate the forearm and hand such that the palm is up (supination) on both sides of the body).
The hand movement score is defined as the sum of UHDRS domains finger taps, pronate-supinate hands and luria (fist-hand-palm test).
An assessment of the ability to rotate the forearm and hand such that the palm is down (pronation) and to rotate the forearm and hand such that the palm is up (supination) on both sides of the body.

[2] = tested on: patients with Huntington's disease; details: for Δ to placebo, change from baseline in Q-Motor: Tap-Speed-Inter-Onset-interval-MN-Hand: Week 52;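 for Δ to placebo, change from baseline in UHDRS TMS Finger Tapping+Pronate-Supinate Hands: finger tapping item rates tapping with fingers of both hands, normal being 15 taps within 5 s, the combined score adds forearm pronation and supination on each side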;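 for Δ to placebo, change from baseline in UHDRS TMS Finger Taps: finger tapping item rates tapping with fingers of both hands, normal being 15 taps within 5 s, the combined score adds forearm pronation and supination on each side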
Description: The patient places their hand on a hand rest with their index finger positioned above a force-transducer. Recordings start after practice runs. The patient is instructed to finger tap as fast as possible between 2 auditory cues. The beginning of a tap is defined as a rise of the force by 0.05 N above maximal baseline level. The tap ends when it drops to 0.05 N before the maximal baseline level is reached again. The duration and variability of tap durations (TD), inter onset intervals (IOI), inter peak intervals (IPI), and inter tap intervals (ITI) are the exploratory outcome measures for speeded tapping. In addition, variability of peak tapping forces (TF) is calculated as coefficient of variation, and the tapping frequency (Freq), i.e., the number of taps between the onsets of the first and the last tap divided by the time in between, is determined. Five trials of 10 seconds duration are performed with each hand.

[3] = tested on: L-DOPA-induced dystonia
Description: Data are median (FIG. 19A) with individual values (FIG. 19BB). N=8 for all treatment groups. */**/*** represents P<0.05, P<0.01 or P<0.001 cf. vehicle-treatment. 2-way RM ANOVA (FIG. 19A) with Holm-Sidak's test or Friedman test with Dunn's test (FIG. 19B).

[4] = 45 mg bid, score at week 26, patients who have completed 52 weeks of treatment
[5] = 45 mg bid, score at week 52, patients who have completed 52 weeks of treatment
[6] = 67.5 mg bid, score at week 26, patients who have completed 52 weeks of treatment
[7] = 67.5 mg bid, score at week 52, patients who have completed 52 weeks of treatment
[8] = 90 mg bid, score at week 26, patients who have completed 52 weeks of treatment
[9] = 90 mg bid, score at week 52, patients who have completed 52 weeks of treatment
[10] = 112.5 mg bid, score at week 26, patients who have completed 52 weeks of treatment
[11] = 112.5 mg bid, score at week 52, patients who have completed 52 weeks of treatment

CCCN1CCC(c2cccc(S(C)(=O)=O)c2)CC1 [pridopidine, 4-[3-(methylsulfonyl)phenyl]-1-propyl-piperidine]
Δ to placebo, change from baseline in UHDRS TMS Finger Taps ([1]; 45 mg bid, Week 26, ALL): −0.3 | Δ to placebo, change from baseline in UHDRS TMS Finger Taps ([1]; 45 mg bid, Week 26, BL TFC≥9, CAG Repeats <44, BL TMS 1st 3 Qs): −0.87 | Δ to placebo, change from baseline in UHDRS TMS Finger Taps ([1]; 45 mg bid, Week 26, BL TFC≥9 and CAG Repeats>44): −0.86 | Δ to placebo, change from baseline in UHDRS TMS Finger Tapping+Pronate-Supinate Hands [1, 4]: −0.79 | Δ to placebo, change from baseline in UHDRS TMS Finger Taps [1, 4]: −0.59 | Δ to placebo, change from baseline in UHDRS TMS Finger Tapping+Pronate-Supinate Hands [1, 5]: −0.37 | Δ to placebo, change from baseline in UHDRS TMS Finger Taps [1, 5]: −0.31 | Δ to placebo, change from baseline in UHDRS TMS Finger Taps ([1]; 67.5 mg bid, Week 26, ALL): −0.07 | Δ to placebo, change from baseline in UHDRS TMS Finger Taps ([1]; 67.5 mg bid, Week 26, BL TFC≥9, CAG Repeats <44, BL TMS 1st 3 Qs): −0.36 | Δ to placebo, change from baseline in UHDRS TMS Finger Taps ([1]; 67.5 mg bid, Week 26, BL TFC≥9 and CAG Repeats>44): −0.34 | Δ to placebo, change from baseline in UHDRS TMS Finger Tapping+Pronate-Supinate Hands [1, 6]: 0.02 | Δ to placebo, change from baseline in UHDRS TMS Finger Taps [1, 6]: −0.13 | Δ to placebo, change from baseline in UHDRS TMS Finger Tapping+Pronate-Supinate Hands [1, 7]: 0.68 | Δ to placebo, change from baseline in UHDRS TMS Finger Taps [1, 7]: 0.13 | Δ to placebo, change from baseline in UHDRS TMS Finger Taps ([1]; 90 mg bid, Week 26, ALL): −0.07 | Δ to placebo, change from baseline in UHDRS TMS Finger Taps ([1]; 90 mg bid, Week 26, BL TFC≥9, CAG Repeats <44, BL TMS 1st 3 Qs): −0.54 | Δ to placebo, change from baseline in UHDRS TMS Finger Taps ([1]; 90 mg bid, Week 26, BL TFC≥9 and CAG Repeats>44): −0.52 | Δ to placebo, change from baseline in UHDRS TMS Finger Tapping+Pronate-Supinate Hands [1, 8]: 0.02 | Δ to placebo, change from baseline in UHDRS TMS Finger Taps [1, 8]: −0.01 | Δ to placebo, change from baseline in UHDRS TMS Finger Tapping+Pronate-Supinate Hands [1, 9]: 0.48 | Δ to placebo, change from baseline in UHDRS TMS Finger Taps [1, 9]: 0.08 | Δ to placebo, change from baseline in UHDRS TMS Finger Taps ([1]; 112.5 mg bid, Week 26, ALL): −0.12 | Δ to placebo, change from baseline in UHDRS TMS Finger Taps ([1]; 112.5 mg bid, Week 26, BL TFC≥9, CAG Repeats <44, BL TMS 1st 3 Qs): −1.05 | Δ to placebo, change from baseline in UHDRS TMS Finger Taps ([1]; 112.5 mg bid, Week 26, BL TFC≥9 and CAG Repeats>44): −1.07 | Δ to placebo, change from baseline in UHDRS TMS Finger Tapping+Pronate-Supinate Hands [1, 10]: −0.23 | Δ to placebo, change from baseline in UHDRS TMS Finger Taps [1, 10]: −0.21 | Δ to placebo, change from baseline in UHDRS TMS Finger Tapping+Pronate-Supinate Hands [1, 11]: 0.28 | Δ to placebo, change from baseline in UHDRS TMS Finger Taps [1, 11]: 0.1 | Δ to placebo, change from baseline in Q-Motor: Tap-Speed-Inter-Onset-interval-MN-Hand ([2]; 45 mg bid, FAS): -0.0402 s | Δ to placebo, change from baseline in Q-Motor: Tap-Speed-Inter-Onset-interval-MN-Hand ([2]; 45 mg bid, HD1 and HD2 patients): -0.0351 s | Δ to placebo, change from baseline in Q-Motor: Tap-Speed-Inter-Onset-interval-MN-Hand ([2]; 67.5 mg bid, FAS): 0.0152 s | Δ to placebo, change from baseline in Q-Motor: Tap-Speed-Inter-Onset-interval-MN-Hand ([2]; 67.5 mg bid, HD1 and HD2 patients): -0.0464 s | Q-Motor Tap Speed Inter Onset interval (IOI) ([2]; 90 mg bid): consistent and significant improvement from baseline | Q-Motor Tap-Speed-Frequency ([2]; 90 mg bid): consistent improvement from baseline | Δ to placebo, change from baseline in Q-Motor: Tap-Speed-Inter-Onset-interval-MN-Hand ([2]; 90 mg bid, FAS): -0.0064 s | Δ to placebo, change from baseline in Q-Motor: Tap-Speed-Inter-Onset-interval-MN-Hand ([2]; 90 mg bid, HD1 and HD2 patients): -0.0291 s | Δ to placebo, change from baseline in Q-Motor: Tap-Speed-Inter-Onset-interval-MN-Hand ([2]; 112.5 mg bid, FAS): -0.017 s | Δ to placebo, change from baseline in Q-Motor: Tap-Speed-Inter-Onset-interval-MN-Hand ([2]; 112.5 mg bid, HD1 and HD2 patients): -0.022 s | levels of dystonia, significance cf. LDh-vehicle ([3]; 15 mg/kg, 1 h epoch 1): ns | levels of dystonia, significance cf. LDh-vehicle ([3]; 15 mg/kg, 1 h epoch 2): ns | levels of dystonia, significance cf. LDh-vehicle ([3]; 15 mg/kg, 1 h epoch 3): ns | levels of dystonia, significance cf. LDh-vehicle ([3]; 15 mg/kg, 1 h epoch 4): ns | levels of dystonia, significance cf. LDh-vehicle ([3]; 15 mg/kg, 1 h epoch 5): ns | levels of dystonia, significance cf. LDh-vehicle ([3]; 15 mg/kg, 1 h epoch 6): ns | levels of dystonia, significance cf. LDh-vehicle ([3]; 20 mg/kg, 1 h epoch 1): * (P<0.05) | levels of dystonia, significance cf. LDh-vehicle ([3]; 20 mg/kg, 1 h epoch 2): ns | levels of dystonia, significance cf. LDh-vehicle ([3]; 20 mg/kg, 1 h epoch 3): ns | levels of dystonia, significance cf. LDh-vehicle ([3]; 20 mg/kg, 1 h epoch 4): ns | levels of dystonia, significance cf. LDh-vehicle ([3]; 20 mg/kg, 1 h epoch 5): ns | levels of dystonia, significance cf. LDh-vehicle ([3]; 20 mg/kg, 1 h epoch 6): ns | median levels of dystonia ([3]; 20 mg/kg, first hour): between moderate and marked | levels of dystonia, significance cf. LDh-vehicle ([3]; 30 mg/kg, 1 h epoch 1): ** (P<0.01) | levels of dystonia, significance cf. LDh-vehicle ([3]; 30 mg/kg, 1 h epoch 2): *** (P<0.001) | levels of dystonia, significance cf. LDh-vehicle ([3]; 30 mg/kg, 1 h epoch 3): * (P<0.05) | levels of dystonia, significance cf. LDh-vehicle ([3]; 30 mg/kg, 1 h epoch 4): ns
